Measured values: PubChem BioAssay (NCI)
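All cell lines were grown in 96-well plates and treated with compound for 48 hours. Definition used: TGI = concentration required for complete inhibition of growth.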

How the values were obtained:
Experiment in all cases: inhibition of tumour cell growth, NCI panel, 48 h
NCI-H460 lung = test system: NCI-H460 lung
COLO 205 colon = test system: COLO 205 colon
UACC-62 melanoma = test system: UACC-62 melanoma
SF-268 CNS = test system: SF-268 CNS
DU-145 prostate = test system: DU-145 prostate
HT29 colon = test system: HT29 colon
OVCAR-4 ovarian = test system: OVCAR-4 ovarian
HOP-62 NSCLC = test system: HOP-62 NSCLC
CCRF-CEM leukemia = test system: CCRF-CEM leukemia
SN12C renal = test system: SN12C renal
786-0 renal = test system: 786-0 renal
NCI-H226 lung = test system: NCI-H226 lung
LOX IMVI melanoma = test system: LOX IMVI melanoma
U251 CNS = test system: U251 CNS
SR leukemia = test system: SR leukemia
ACHN renal = test system: ACHN renal
SK-MEL-5 melanoma = test system: SK-MEL-5 melanoma
NCI-H522 lung = test system: NCI-H522 lung
MCF7 breast = test system: MCF7 breast
SNB-19 CNS = test system: SNB-19 CNS
SW-620 colon = test system: SW-620 colon
HCT-116 colon = test system: HCT-116 colon
MALME-3M melanoma = test system: MALME-3M melanoma
M14 melanoma = test system: M14 melanoma
HS 578T breast = test system: HS 578T breast
OVCAR-3 ovarian = test system: OVCAR-3 ovarian
K-562 leukemia = test system: K-562 leukemia
KM12 colon = test system: KM12 colon
SK-OV-3 ovarian = test system: SK-OV-3 ovarian
OVCAR-5 ovarian = test system: OVCAR-5 ovarian
MOLT-4 leukemia = test system: MOLT-4 leukemia
HCT-15 colon = test system: HCT-15 colon
EKVX NSCLC = test system: EKVX NSCLC
A549 NSCLC = test system: A549 NSCLC
NCI/ADR-RES ovarian = test system: NCI/ADR-RES ovarian
MDA-MB-435 = test system: MDA-MB-435
RXF 393 renal = test system: RXF 393 renal
RPMI-8226 leukemia = test system: RPMI-8226 leukemia
HL-60(TB) leukemia = test system: HL-60(TB) leukemia
IGROV1 ovarian = test system: IGROV1 ovarian
SF-539 CNS = test system: SF-539 CNS
MDA-N = test system: MDA-N
OVCAR-8 ovarian = test system: OVCAR-8 ovarian
HOP-92 NSCLC = test system: HOP-92 NSCLC
T-47D breast = test system: T-47D breast
TK-10 renal = test system: TK-10 renal
PC-3 prostate = test system: PC-3 prostate
SNB-75 CNS = test system: SNB-75 CNS
HCC-2998 colon = test system: HCC-2998 colon
SK-MEL-28 melanoma = test system: SK-MEL-28 melanoma
SK-MEL-2 melanoma = test system: SK-MEL-2 melanoma
CAKI-1 renal = test system: CAKI-1 renal
SF-295 CNS = test system: SF-295 CNS
A498 renal = test system: A498 renal
UACC-257 melanoma = test system: UACC-257 melanoma
UO-31 renal = test system: UO-31 renal
MDA-MB-231 breast = test system: MDA-MB-231 breast
BT-549 breast = test system: BT-549 breast
NCI-H23 lung = test system: NCI-H23 lung

`COc1ccc(C(C)NNC(=O)c2ccncc2)c(OC)c1` (stereo not drawn) showed a TGI (NCI-H460 lung) of over 100 µM, a TGI (COLO 205 colon) of over 100 µM and a TGI (UACC-62 melanoma) of over 100 µM. For the same molecule, the TGI (SF-268 CNS) was over 100 µM, the TGI (DU-145 prostate) was over 100 µM and the TGI (HT29 colon) was over 100 µM. The TGI (OVCAR-4 ovarian) was over 100 µM, the TGI (HOP-62 NSCLC) was over 100 µM and the TGI (CCRF-CEM leukemia) was over 100 µM. For the same molecule, the TGI (SN12C renal) was over 100 µM, the TGI (786-0 renal) was over 100 µM and the TGI (NCI-H226 lung) was over 100 µM. For the same molecule, the TGI (LOX IMVI melanoma) was over 100 µM, the TGI (U251 CNS) was over 100 µM and the TGI (SR leukemia) was over 100 µM. The TGI (ACHN renal) was over 100 µM, the TGI (SK-MEL-5 melanoma) was over 100 µM and the TGI (NCI-H522 lung) was over 100 µM. The TGI (MCF7 breast) was over 100 µM, the TGI (SNB-19 CNS) was over 100 µM and the TGI (SW-620 colon) was over 100 µM. For the same molecule, the TGI (HCT-116 colon) was over 100 µM, the TGI (MALME-3M melanoma) was over 100 µM and the TGI (M14 melanoma) was over 100 µM. It also gave a TGI (HS 578T breast) of over 100 µM, a TGI (OVCAR-3 ovarian) of over 100 µM and a TGI (K-562 leukemia) of over 100 µM. It also gave a TGI (KM12 colon) of over 100 µM, a TGI (SK-OV-3 ovarian) of over 100 µM and a TGI (OVCAR-5 ovarian) of over 100 µM. The TGI (MOLT-4 leukemia) was over 100 µM, the TGI (HCT-15 colon) was over 100 µM and the TGI (EKVX NSCLC) was over 100 µM. The TGI (A549 NSCLC) was over 100 µM, the TGI (NCI/ADR-RES ovarian) was over 100 µM and the TGI (MDA-MB-435) was over 100 µM. For the same molecule, the TGI (RXF 393 renal) was over 100 µM, the TGI (RPMI-8226 leukemia) was over 100 µM and the TGI (HL-60(TB) leukemia) was over 100 µM. It also gave a TGI (IGROV1 ovarian) of over 100 µM, a TGI (SF-539 CNS) of over 100 µM and a TGI (MDA-N) of over 100 µM. It also gave a TGI (OVCAR-8 ovarian) of over 100 µM, a TGI (HOP-92 NSCLC) of over 100 µM and a TGI (T-47D breast) of over 100 µM. The TGI (TK-10 renal) was over 100 µM, the TGI (PC-3 prostate) was over 100 µM and the TGI (SNB-75 CNS) was over 100 µM. It also gave a TGI (HCC-2998 colon) of over 100 µM, a TGI (SK-MEL-28 melanoma) of over 100 µM and a TGI (SK-MEL-2 melanoma) of over 100 µM. It also gave a TGI (CAKI-1 renal) of over 100 µM, a TGI (SF-295 CNS) of over 100 µM and a TGI (A498 renal) of over 100 µM. It also gave a TGI (UACC-257 melanoma) of over 100 µM, a TGI (UO-31 renal) of over 100 µM and a TGI (MDA-MB-231 breast) of over 100 µM. It also gave a TGI (BT-549 breast) of over 100 µM and a TGI (NCI-H23 lung) of over 100 µM.
`CCN(CC)c1c(N(CC)CC)c(=O)c1=O` gave a TGI (NCI-H460 lung) of over 78.2 µM, a TGI (COLO 205 colon) of 8.24 µM and a TGI (UACC-62 melanoma) of 45.7 µM. The TGI (SF-268 CNS) was over 77 µM, the TGI (DU-145 prostate) was 23.3 µM and the TGI (HT29 colon) was 5.96 µM. For the same molecule, the TGI (OVCAR-4 ovarian) was 46.3 µM, the TGI (HOP-62 NSCLC) was over 77.3 µM and the TGI (CCRF-CEM leukemia) was 18.9 µM. The TGI (SN12C renal) was 24 µM, the TGI (786-0 renal) was 16.2 µM and the TGI (NCI-H226 lung) was 30.9 µM. The TGI (LOX IMVI melanoma) was 25.8 µM, the TGI (U251 CNS) was 55.6 µM and the TGI (SR leukemia) was over 100 µM. The TGI (ACHN renal) was 21.1 µM, the TGI (SK-MEL-5 melanoma) was 35.2 µM and the TGI (NCI-H522 lung) was 4.86 µM. For the same molecule, the TGI (MCF7 breast) was 29.5 µM, the TGI (SNB-19 CNS) was over 89.6 µM and the TGI (SW-620 colon) was 20.1 µM. The TGI (HCT-116 colon) was 20.8 µM, the TGI (MALME-3M melanoma) was 13.2 µM and the TGI (M14 melanoma) was 36.9 µM. It also gave a TGI (HS 578T breast) of 59.9 µM, a TGI (OVCAR-3 ovarian) of 25.1 µM and a TGI (K-562 leukemia) of over 100 µM. The TGI (KM12 colon) was 48.4 µM, the TGI (SK-OV-3 ovarian) was over 100 µM and the TGI (OVCAR-5 ovarian) was 37.2 µM. The TGI (MOLT-4 leukemia) was 16.4 µM, the TGI (HCT-15 colon) was 17 µM and the TGI (EKVX NSCLC) was 28.6 µM. For the same molecule, the TGI (A549 NSCLC) was 43.7 µM, the TGI (NCI/ADR-RES ovarian) was 61.2 µM and the TGI (MDA-MB-435) was 60.9 µM. For the same molecule, the TGI (RXF 393 renal) was 25.2 µM, the TGI (RPMI-8226 leukemia) was 4.91 µM and the TGI (HL-60(TB) leukemia) was 7.58 µM. The TGI (IGROV1 ovarian) was 8.01 µM, the TGI (SF-539 CNS) was 19 µM and the TGI (MDA-N) was 32.1 µM. For the same molecule, the TGI (OVCAR-8 ovarian) was 27.6 µM, the TGI (HOP-92 NSCLC) was 11.4 µM and the TGI (T-47D breast) was 10.4 µM. The TGI (TK-10 renal) was 8.7 µM, the TGI (PC-3 prostate) was 46.4 µM and the TGI (SNB-75 CNS) was 62.6 µM. For the same molecule, the TGI (HCC-2998 colon) was 39.9 µM, the TGI (SK-MEL-28 melanoma) was 41.9 µM and the TGI (SK-MEL-2 melanoma) was 66.9 µM. For the same molecule, the TGI (CAKI-1 renal) was 9.62 µM, the TGI (SF-295 CNS) was over 100 µM and the TGI (A498 renal) was 58.1 µM. For the same molecule, the TGI (UACC-257 melanoma) was 20.5 µM, the TGI (UO-31 renal) was 12 µM and the TGI (MDA-MB-231 breast) was 15.8 µM. The TGI (BT-549 breast) was 35.8 µM and the TGI (NCI-H23 lung) was 26.7 µM.
